From US12077503B2, “Substituted cyclic amides and their use as herbicides” (FMC CORPORATION, priority 2015, dated 2024)

Experiments:
Assay type in all cases: in vivo
[1] = system: ryegrass, Italian (Italian ryegrass, Lolium multiflorum); assay: Test A preemergence; conditions: Lolium multiflorum, pre-emergence, 240 h; for pest or weed control at 125 g/ha: 125 g ai/ha, preemergence, 0 to 100 scale where 0 is no effect and 100 is complete control, read-out: Ryegrass, Italian plant response rating; for pest or weed control at 500 g/ha: 500 g ai/ha, Preemergence, visual injury vs untreated controls after approximately 10 d, read-out: Ryegrass, Italian plant response rating (0 to 100 scale where 0 is no effect and 100 is complete control)
In short: (§1)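 Seeded soil received test chemicals as a preemergence directed spray, and seedlings at one to two leaves, 2–10 cm tall, received them postemergence, in a non-phytotoxic, surfactant-containing solvent mixture. Pots were held in a greenhouse for approximately 10 d, then rated for injury from 0, no effect, to 100, complete control.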

[2] = system: barnyardgrass (Echinochloa crus-galli); assay: Test A preemergence; conditions: Echinochloa crus-galli, pre-emergence, 240 h; for pest or weed control at 125 g/ha: 125 g ai/ha, preemergence, 0 to 100 scale where 0 is no effect and 100 is complete control, read-out: Barnyardgrass plant response rating; for pest or weed control at 500 g/ha: 500 g ai/ha, Preemergence, visual injury vs untreated controls after approximately 10 d, read-out: Barnyardgrass plant response rating (0 to 100 scale where 0 is no effect and 100 is complete control)
In short: as §1

[3] = system: ragweed (common ragweed, Ambrosia elatior); assay: Test A preemergence; conditions: Ambrosia artemisiifolia, pre-emergence, 240 h; for pest or weed control at 125 g/ha: 125 g ai/ha, preemergence, 0 to 100 scale where 0 is no effect and 100 is complete control, read-out: Ragweed plant response rating; for pest or weed control at 500 g/ha: 500 g ai/ha, Preemergence, visual injury vs untreated controls after approximately 10 d, read-out: Ragweed plant response rating (0 to 100 scale where 0 is no effect and 100 is complete control)
In short: as §1

[4] = system: pigweed (Amaranthus retroflexus); assay: Test A preemergence; conditions: Amaranthus retroflexus, pre-emergence, 240 h; for pest or weed control at 125 g/ha: 125 g ai/ha, preemergence, 0 to 100 scale where 0 is no effect and 100 is complete control, read-out: Pigweed plant response rating; for pest or weed control at 500 g/ha: 500 g ai/ha, Preemergence, visual injury vs untreated controls after approximately 10 d, read-out: Pigweed plant response rating (0 to 100 scale where 0 is no effect and 100 is complete control)
[5] = system: Kochia (Kochia scoparia); assay: Test A preemergence; conditions: Bassia scoparia, pre-emergence, 240 h; for pest or weed control at 125 g/ha: 125 g ai/ha, preemergence, 0 to 100 scale where 0 is no effect and 100 is complete control, read-out: Kochia plant response rating; for pest or weed control at 500 g/ha: 500 g ai/ha, Preemergence, visual injury vs untreated controls after approximately 10 d, read-out: Kochia plant response rating (0 to 100 scale where 0 is no effect and 100 is complete control)
In short: as §1

[6] = system: giant foxtail (Setaria faberii); assay: Test A preemergence; conditions: Setaria faberi, pre-emergence, 240 h; for pest or weed control at 125 g/ha: 125 g ai/ha, preemergence, 0 to 100 scale where 0 is no effect and 100 is complete control, read-out: Foxtail, Giant plant response rating; for pest or weed control at 500 g/ha: 500 g ai/ha, Preemergence, visual injury vs untreated controls after approximately 10 d, read-out: Foxtail, Giant plant response rating (0 to 100 scale where 0 is no effect and 100 is complete control)
In short: as §1

[7] = system: ducksalad (Heteranthera limosa); assay: Test B flooded paddy test; conditions: Heteranthera limosa, Flood, 250 g ai/ha; scale of 0 to 100 where 0 is no effect and 100 is complete control; read-out: Ducksalad plant response rating
In short: (§2)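 Flooding to 3 cm over soil accompanied treatment, which consisted of adding compound to the standing water around 2-leaf plants; depth was then maintained. Visual assessment versus controls followed at 13 to 15 d (scale 0–100, 0 meaning no effect).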

[8] = system: barnyardgrass (Echinochloa crus-galli); assay: Test B flooded paddy test; conditions: Echinochloa crus-galli, Flood, 250 g ai/ha; scale of 0 to 100 where 0 is no effect and 100 is complete control; read-out: Barnyardgrass plant response rating
In short: as §2

[9] = system: rice (Oryra sativa); assay: Test B flooded paddy test; conditions: Oryza sativa, Flood, 250 g ai/ha; scale of 0 to 100 where 0 is no effect and 100 is complete control; read-out: Rice plant response rating
In short: as §2

[10] = system: sedge, umbrella (small-flower umbrella sedge, Cyperus difformis); assay: Test B flooded paddy test; conditions: Cyperus difformis, Flood, 250 g ai/ha; scale of 0 to 100 where 0 is no effect and 100 is complete control; read-out: Sedge, Umbrella plant response rating
In short: as §2

[11] = system: barnyardgrass (Echinochloa crus-galli); assay: Test A postemergence; conditions: Echinochloa crus-galli, post-emergence, 240 h, 125 g ai/ha, postemergence, visual injury rating after approximately 10 d; read-out: Barnyardgrass plant response rating (0 to 100 scale, 0 no effect, 100 complete control)
In short: as §1

[12] = system: wheat (Triticum aestivum); assay: Test A postemergence; conditions: Triticum aestivum, post-emergence, 240 h, 125 g ai/ha, postemergence, visual injury rating after approximately 10 d; read-out: Wheat plant response rating (0 to 100 scale, 0 no effect, 100 complete control)
In short: as §1

[13] = system: Kochia (Kochia scoparia); assay: Test A postemergence; conditions: Bassia scoparia, post-emergence, 240 h, 125 g ai/ha, postemergence, visual injury rating after approximately 10 d; read-out: Kochia plant response rating (0 to 100 scale, 0 no effect, 100 complete control)
In short: as §1

[14] = system: giant foxtail (Setaria faberii); assay: Test A postemergence; conditions: Setaria faberi, post-emergence, 240 h, 125 g ai/ha, postemergence, visual injury rating after approximately 10 d; read-out: Foxtail, Giant plant response rating (0 to 100 scale, 0 no effect, 100 complete control)
In short: as §1

CC(C)c1cccc([C@H]2CN(C)C(=O)[C@@H]2C(=O)Nc2ccccc2F)c1 [Compound 819]
pest or weed control at 125 g/ha [1]: 80%
pest or weed control at 500 g/ha [1]: 100%
pest or weed control at 125 g/ha [2]: 90%
pest or weed control at 500 g/ha [2]: 100%
pest or weed control at 125 g/ha [3]: 0%
pest or weed control at 500 g/ha [3]: 20%
pest or weed control at 125 g/ha [4]: 30%
pest or weed control at 500 g/ha [4]: 30%
pest or weed control at 125 g/ha [5]: 70%
pest or weed control at 500 g/ha [5]: 100%
pest or weed control at 125 g/ha [6]: 100%
pest or weed control at 500 g/ha [6]: 100%
pest or weed control at 250 g/ha [7]: 100%
pest or weed control at 250 g/ha [8]: 65%
pest or weed control at 250 g/ha [9]: 0%
pest or weed control at 250 g/ha [10]: 0%
pest or weed control at 125 g/ha [11]: 100%
plant injury at 125 g/ha [12]: 30%
pest or weed control at 125 g/ha [13]: 30%
pest or weed control at 125 g/ha [14]: 90%

CN1C[C@H](c2cccc(F)c2)[C@@H](C(=O)Nc2ccccc2C(F)(F)F)C1=O [Compound 823]
pest or weed control at 125 g/ha [1]: 30%
pest or weed control at 500 g/ha [1]: 60%
pest or weed control at 125 g/ha [2]: 90%
pest or weed control at 500 g/ha [2]: 100%
pest or weed control at 125 g/ha [3]: 0%
pest or weed control at 500 g/ha [3]: 40%
pest or weed control at 125 g/ha [4]: 0%
pest or weed control at 500 g/ha [4]: 50%
pest or weed control at 125 g/ha [5]: 0%
pest or weed control at 500 g/ha [5]: 70%
pest or weed control at 125 g/ha [6]: 100%
pest or weed control at 500 g/ha [6]: 100%
pest or weed control at 250 g/ha [7]: 90%
pest or weed control at 250 g/ha [8]: 40%
pest or weed control at 250 g/ha [9]: 0%
pest or weed control at 250 g/ha [10]: 0%
pest or weed control at 125 g/ha [11]: 90%
plant injury at 125 g/ha [12]: 0%
pest or weed control at 125 g/ha [13]: 20%
pest or weed control at 125 g/ha [14]: 90%

N#Cc1cccc(NC(=O)[C@H]2C(=O)NC[C@@H]2c2cccc(C(F)(F)F)c2)c1F [Compound 829]
pest or weed control at 125 g/ha [1]: 20%
pest or weed control at 500 g/ha [1]: 40%
pest or weed control at 125 g/ha [2]: 90%
pest or weed control at 500 g/ha [2]: 90%
pest or weed control at 125 g/ha [3]: 30%
pest or weed control at 500 g/ha [3]: 70%
pest or weed control at 125 g/ha [4]: 0%
pest or weed control at 500 g/ha [4]: 60%
pest or weed control at 125 g/ha [5]: 60%
pest or weed control at 500 g/ha [5]: 90%
pest or weed control at 125 g/ha [6]: 90%
pest or weed control at 500 g/ha [6]: 90%
pest or weed control at 250 g/ha [7]: 70%
pest or weed control at 250 g/ha [8]: 55%
pest or weed control at 250 g/ha [9]: 0%
pest or weed control at 250 g/ha [10]: 0%
pest or weed control at 125 g/ha [11]: 80%
plant injury at 125 g/ha [12]: 30%
pest or weed control at 125 g/ha [13]: 0%
pest or weed control at 125 g/ha [14]: 90%
